Results on 2 compounds are retold here after patent US20240067693A1, “POLYPEPTIDES AND USES THEREOF” (MEDIMMUNE LIMITED, priority 2020, published 2024).

Numbered stars: 1 amine (or outer) side, 2 acyl side, 3 side chain; on linkers, the order of the positions; unused ones are H or OH. Bridge positions count the residues as written; N and C are the ends. Square brackets hold non-standard residues; d marks the D form. Side chains are listed from the residue outwards. Ends that are not written are not given here. Peptide text beside a SMILES is read from it. * marks the point of attachment. C18 diacid = O=C(O)CCCCCCCCCCCCCCCCC(=O)*; γGlu = O=C(O)[C@H](CCC(=O)[*:2])N[*:1]; Aib = CC(C)(N)C(=O)O

The conditions of series [1]: Roth et al. Br J Pharmacol 2012; cited from earlier work.
Series [2] has as its target T1, rat amylin receptor (calcitonin receptor co-expressed with receptor activity modifying protein, RAMP3) (Rat AMYR3) (Rattus norvegicus, UniProt P32214+Q9JJ73).
T1 construct: expressed in transfected cells
T1 sequence (P32214 25-516): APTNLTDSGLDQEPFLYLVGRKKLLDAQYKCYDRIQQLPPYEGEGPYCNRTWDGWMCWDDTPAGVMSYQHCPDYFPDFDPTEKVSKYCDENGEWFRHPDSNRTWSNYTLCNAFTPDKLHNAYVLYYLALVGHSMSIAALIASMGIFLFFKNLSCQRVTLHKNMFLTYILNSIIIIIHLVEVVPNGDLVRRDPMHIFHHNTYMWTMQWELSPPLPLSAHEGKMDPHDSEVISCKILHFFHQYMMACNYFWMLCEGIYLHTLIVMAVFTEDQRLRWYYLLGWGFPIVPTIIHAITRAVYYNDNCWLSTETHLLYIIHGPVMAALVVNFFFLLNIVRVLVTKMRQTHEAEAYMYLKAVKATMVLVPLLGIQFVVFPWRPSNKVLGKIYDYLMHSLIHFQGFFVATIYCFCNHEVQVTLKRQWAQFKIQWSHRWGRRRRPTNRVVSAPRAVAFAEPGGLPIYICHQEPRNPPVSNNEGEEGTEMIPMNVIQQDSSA
T1 sequence (Q9JJ73 23-147 partner): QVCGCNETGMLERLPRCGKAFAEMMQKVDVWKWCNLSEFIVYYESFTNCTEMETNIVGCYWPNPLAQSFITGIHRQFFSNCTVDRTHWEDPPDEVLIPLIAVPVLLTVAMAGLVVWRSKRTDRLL
The series can be described thus: cAMP production in HEK cells with stable recombinant expression of rat amylin receptor (Rat AMYR3). Conditions: assay buffer with 0.1% BSA. The format is cell-based. In short, it runs like this: (§1)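 Receptor-expressing cells (human receptors in 1321N1, rat receptors in HEK) incubated 30 min at room temperature with peptide in HBSS/HEPES pH 7.4, 0.1% BSA, 0.5 mM IBMX. cAMP read by HTRF; EC50 from 4-parameter fit as % of maximal amylin or calcitonin response.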

The nature of series [3]: Pharmacokinetic determination via IV and SC administration in Sprague Dawley rats. Conditions: male, rat, plasma, 20 nmol/kg.
Series [4] has as its target T2, human amylin receptor (calcitonin receptor co-expressed with receptor activity modifying protein, RAMP3) (hAMYR3) (Homo sapiens, UniProt O60896+P30988).
T2 construct: expressed in transfected cells
T2 sequence (P30988 25-474): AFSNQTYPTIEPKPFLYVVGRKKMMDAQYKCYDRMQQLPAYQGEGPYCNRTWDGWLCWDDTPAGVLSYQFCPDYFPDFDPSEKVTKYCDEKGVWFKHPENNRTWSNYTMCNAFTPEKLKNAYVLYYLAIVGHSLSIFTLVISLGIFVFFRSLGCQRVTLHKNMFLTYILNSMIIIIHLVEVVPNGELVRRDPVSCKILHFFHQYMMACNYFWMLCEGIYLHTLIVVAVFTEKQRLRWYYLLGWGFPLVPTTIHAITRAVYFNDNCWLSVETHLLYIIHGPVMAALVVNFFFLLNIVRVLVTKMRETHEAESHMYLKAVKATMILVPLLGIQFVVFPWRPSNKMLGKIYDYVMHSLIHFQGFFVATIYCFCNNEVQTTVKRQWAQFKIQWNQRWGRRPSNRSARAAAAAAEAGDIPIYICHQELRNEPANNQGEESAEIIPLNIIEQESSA
T2 sequence (O60896 24-148 partner): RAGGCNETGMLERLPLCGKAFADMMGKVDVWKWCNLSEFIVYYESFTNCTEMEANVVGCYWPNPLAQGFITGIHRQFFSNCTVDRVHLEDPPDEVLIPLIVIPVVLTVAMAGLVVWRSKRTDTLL
As to the kind of experiment: cAMP production in 1321N1 cells with stable recombinant expression of human amylin receptor (hAMYR3). The format is cell-based. The procedure, abridged: as §1

The test system of a further series is lean rats. As to the kind of experiment: Rat acute food intake study. The class given is in vivo. Conditions: lean male Sprague Dawley rats, 20 nmol/kg subcutaneously. The procedure, abridged: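 Male Sprague Dawley rats (n=7/group), fasted 6 h, received 20 nmol/kg test compound or 60 nmol/kg pramlintide subcutaneously 30 min before food return at dark onset. Food intake recorded automatically in home cages over 3 days, binned hourly and analysed as cumulative dark-period intake; body weight taken daily.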

The target in series [5] is T3, human calcitonin receptor (hCTR) (Homo sapiens, UniProt P30988).
T3 construct: expressed in transfected cells
T3 sequence (P30988 25-474): T2 sequence (P30988 25-474)
The series can be described thus: cAMP production in 1321N1 cells with stable recombinant expression of human calcitonin receptor (hCTR). The class given is cell-based. The settings on record: cAMP, 1321N1 cells, assay buffer with 0.1% BSA; read-out: EC50 (pM) hCTR. In short, it runs like this:
as §1

Series [6] deals with T4, rat calcitonin receptor (rat CTR) (Rattus norvegicus, UniProt P32214).
T4 construct: expressed in transfected cells
T4 sequence (P32214 25-516): T1 sequence (P32214 25-516)
As to the kind of experiment: cAMP production in HEK cells with stable recombinant expression of rat calcitonin receptor (rat CTR). The class given is cell-based. Conditions: assay buffer with 0.1% BSA. In short, it runs like this: as §1

On to “amylin (KCNTATCATQRLANFLVHSSNNFGAILSSTNVGSNTY; not fully specified (C-terminus, bridges); cysteine pairing not given here; UniProt P10997 34-70, looked up) [native amylin, of which pramlintide is a synthetic analogue with three proline substitutions]”, for which, in series [1], the “terminal half-life in rats” value is “around 13 minutes”.
`CC[C@H](C)[C@H](NC(=O)[C@@H]1CCCN1C(=O)CNC(=O)[C@H](Cc1ccccc1)NC(=O)[C@H](CC(N)=O)NC(=O)C(C)(C)NC(=O)[C@H](CO)NC(=O)[C@H](CO)NC(=O)[C@H](Cc1c[nH]cn1)NC(=O)[C@@H](NC(=O)[C@H](CC(C)C)NC(=O)[C@H](Cc1ccccc1)NC(=O)[C@H](CCC(=O)O)NC(=O)[C@H](C)NC(=O)[C@H](CC(C)C)NC(=O)[C@H](CCCNC(=N)N)NC(=O)[C@H](CCC(N)=O)NC(=O)[C@@H](NC(=O)[C@H](C)NC(=O)[C@@H]1CSSC[C@H](NC(=O)[C@H](CCCCN)NC(=O)[C@@H](N)CCCCNC(=O)CC[C@H](NC(=O)CCCCCCCCCCCCCCCCC(=O)O)C(=O)O)C(=O)N[C@@H](CC(N)=O)C(=O)N[C@@H]([C@@H](C)O)C(=O)N[C@@H](C)C(=O)N[C@@H]([C@@H](C)O)C(=O)N1)[C@@H](C)O)C(C)C)C(=O)N[C@@H](CC(C)C)C(=O)N1CCC[C@H]1C(=O)N1CCC[C@H]1C(=O)N[C@H](C(=O)N[C@@H](CC(N)=O)C(=O)N[C@H](C(=O)NCC(=O)N[C@@H](CO)C(=O)N[C@@H](CC(N)=O)C(=O)N[C@H](C(=O)N[C@@H](Cc1ccc(O)cc1)C(N)=O)[C@@H](C)O)C(C)C)[C@@H](C)O` [Peptide 38, K(γE-C18diacid)K[CNTATC]ATQRLAEFLVHSS(Aib)NFGPILPPTNVGSNTY-amide] (H-K([γGlu-C18 diacid])KCNTATCATQRLAEFLVHSS[Aib]NFGPILPPTNVGSNTY-NH2; disulfide 3-8; N-terminus assumed): the EC50 is 5.1 pM in series [2]; 190 pM in series [4] (cAMP, 1321N1 cells, assay buffer with 0.1% BSA, read-out: EC50 (pM) hAMYR3); 1050 pM in series [5]; 20.3 pM in series [6]. In addition, the figures for the half-life in series [3] (iv) and in series [3] (sc) were 6.6 h and 9 h, respectively. Moreover, the “Ratio (selectivity hAMYR vs hCTR, ratio of EC50 values at the two receptors)” value in series [4] (EC50 hCTR / EC50 hAMYR3) is listed as 6. Further, in the series on lean rats (at 12 h), the “Cummulative food intake (% vehicle treated intake) At 12 h” value is 6.9 % vehicle treated intake. In the series with lean rats (at 24 h), the “Cummulative food intake (% vehicle treated intake) At 24 h” value was found to be 5.5 % vehicle treated intake. Also, the “Cummulative food intake (% vehicle treated intake) At 48 h” value with lean rats (at 48 h) was determined as 13.7 % vehicle treated intake.
